Laboratory results taken from patent publication US6933272B1 (priority 1998, dated 2005).
pEC50, pIC50, pKi: −log10 of the molar value. “Also recorded” adds a separate entry of the source. Like-named read-outs stand apart in the source and are kept apart here. Blank lines part the entries; values can stand above or below the molecule they belong to.

What was measured:
NIH 3T3 HIR3.5 cells = settings: read-out: half maximal insulin concentration for stimulation of 3H-deoxyglucose; cited from earlier work
[1] = molecular target: insulin receptor β-subunit associated tyrosine kinase activity (Homo sapiens, UniProt P06213); assay: Protein tyrosine kinase (PTK) assay, 32P incorporation into FYF peptide; assay type: biochemical; settings: for effect of compound alone on 32P incorporation into FYF peptide: basal, absence of insulin
Protocol: Protein tyrosine kinase activity was determined using a modification of the method of N. Konstantopoulos (22).
The reaction was allowed to proceed for 20 minutes at 30° C. before it was terminated by the addition of 12.5 μL of 7.5 M guanidine hydrochloride. An aliquot (10 μL) of the reaction mixture was then spotted onto a Whatman 81 phosphocellulose paper (15 mm×15 mm), washed three times (2 min per wash) in about 50 mL of 30% acetic acid, 0.05% orthophosphoric acid then finally, with one wash in about 200 mL of water. The papers were then rinsed briefly (15 sec) in 95% ethanol, dried, suspended in 2.5 mL of scintillation fluid (Beckman) and counted for radioactivity in a Beckman β-counter.

3T3L1 adipocyte cells = assay: Glucose transport (3H-deoxyglucose uptake) in 3T3L1 adipocyte cells; assay type: cell-based, mouse; settings: for effect of compound alone on glucose transport: basal, no insulin
Protocol: Glucose transport was determined using a modification of the method of S. J. Isakoff et at. (23). The assay involved measuring the effect of compounds on the uptake of ^3H-deoxyglucose into 3T3L1 adipocyte cells.
The cell line, 3T3-L1, derived from mouse embryo fibroblasts, was grown in 250 mL tissue culture flasks containing 15 mL medium made up of DMEM (Dulbecco's modified Eagle's medium containing glutamine, 2 mM; sodium bicarbonate, 30 mM; penicillin 71.5 mg/litre; streptomycin, 152.5 mg/litre) supplemented with 10% foetal calf serum (FCS), pH 7.4. Cells were maintained in a humidified incubator at 37° C. in a 5% CO2 environment. The medium was changed every 3 days and the cells were split when they were about 70-80% confluent.
3T3-L1 fibroblast cells from one tissue culture flask were suspended in 50 mL of DMEM media containing 10% FCS and 0.5 mL of this suspension were seeded into each well of two 48-well tissue culture plates. The differentiation of the cells was initiated when the fibroblast cells were fully confluent. Routinely, differentiation was induced on cells that had been growing in tissue culture plates for 4-5 days. […] The cells were subsequently maintained with DMEM medium containing 10% FCS.
One day prior to the glucose transport assay, cell medium was replaced with DMEM containing 10% charcoal-treated foetal calf serum (CTFCS). On the day of the assay, the medium was aspirated and each well was washed with 1 mL of 25 mM Hepes, pH 7.4 containing 0.9% NaCl (NaCl-HEPES). […] Ten microlitres of NaCl-HEPES containing 3 mM 2-deoxy-D-glucose and 0.1 μCi 2-deoxy-D-[1-^3H]glucose were then added. Following a 10 min incubation at 37° C., the medium was aspirated off and the wells rapidly washed three times with 1 mL of ice-cold 50 mM phosphate, pH 7.5 containing 150 mM NaCl (PBS) and 10 mM glucose. Two hundred microlitres of 3% Triton X-100 was then added to each well and left to incubate for a minimum of 10 minutes. One hundred microlitres of the solubilised cells was then added to 2.5 mL of liquid scintillation fluid and counted for radioactivity in a Beckman β-counter.

insulin receptor [2] = molecular target: T1, insulin receptor (Homo sapiens, UniProt P06213); assay: Assays of insulin action (several biological assays, classification agonist/antagonist)
Target sequence in this assay (P06213 with tags, fused parts or gaps): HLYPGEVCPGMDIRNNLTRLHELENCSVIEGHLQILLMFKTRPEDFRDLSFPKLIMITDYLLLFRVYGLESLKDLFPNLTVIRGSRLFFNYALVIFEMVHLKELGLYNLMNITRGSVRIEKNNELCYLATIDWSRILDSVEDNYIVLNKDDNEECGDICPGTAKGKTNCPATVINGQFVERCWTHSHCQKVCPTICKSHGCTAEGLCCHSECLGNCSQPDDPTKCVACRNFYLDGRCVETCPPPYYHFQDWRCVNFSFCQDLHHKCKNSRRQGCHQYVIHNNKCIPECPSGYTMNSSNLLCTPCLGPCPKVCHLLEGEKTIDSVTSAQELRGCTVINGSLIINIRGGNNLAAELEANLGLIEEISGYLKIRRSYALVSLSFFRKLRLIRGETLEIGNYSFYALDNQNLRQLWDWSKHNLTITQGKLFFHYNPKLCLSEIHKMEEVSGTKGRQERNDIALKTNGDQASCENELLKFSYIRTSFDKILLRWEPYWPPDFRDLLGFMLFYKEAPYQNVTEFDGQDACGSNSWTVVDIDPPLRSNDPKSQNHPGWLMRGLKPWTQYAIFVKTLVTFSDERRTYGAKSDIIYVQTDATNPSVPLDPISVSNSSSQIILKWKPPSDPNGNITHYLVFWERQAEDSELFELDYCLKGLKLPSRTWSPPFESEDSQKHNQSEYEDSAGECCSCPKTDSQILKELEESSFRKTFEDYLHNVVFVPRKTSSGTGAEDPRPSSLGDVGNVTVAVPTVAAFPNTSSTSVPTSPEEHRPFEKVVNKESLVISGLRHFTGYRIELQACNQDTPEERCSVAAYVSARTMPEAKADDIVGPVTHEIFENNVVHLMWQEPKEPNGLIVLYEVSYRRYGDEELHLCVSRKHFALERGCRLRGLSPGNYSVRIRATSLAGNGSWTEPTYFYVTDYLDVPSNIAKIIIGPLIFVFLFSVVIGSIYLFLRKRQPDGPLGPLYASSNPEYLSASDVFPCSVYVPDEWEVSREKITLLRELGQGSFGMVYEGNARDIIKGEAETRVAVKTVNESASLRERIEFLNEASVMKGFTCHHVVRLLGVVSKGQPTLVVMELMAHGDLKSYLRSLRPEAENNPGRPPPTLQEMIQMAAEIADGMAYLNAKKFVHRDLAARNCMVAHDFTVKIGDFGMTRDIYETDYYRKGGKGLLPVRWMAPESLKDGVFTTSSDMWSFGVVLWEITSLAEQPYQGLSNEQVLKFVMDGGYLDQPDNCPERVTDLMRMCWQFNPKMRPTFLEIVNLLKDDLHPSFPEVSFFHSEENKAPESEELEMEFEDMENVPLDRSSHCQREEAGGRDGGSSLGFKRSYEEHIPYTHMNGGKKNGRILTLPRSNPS

IGF-1 receptors = molecular target: T2, IGF-1 receptors (Cricetulus griseus, UniProt A0A8C2N2R2); assay: 125I IGF-1 binding to WGA purified receptor preparations from CHO wild-type cells
T2 construct: have high endogenous populations of IGF-1 receptors; endogenous in cells; host or cells: CHO wild-type cells, solubilised, WGA purified

[3] = system: streptozotocin induced diabetic mice; assay: Blood glucose levels in streptozotocin induced diabetic mice; assay type: in vivo, mouse
Protocol: Six week old male CD-1 mice were injected intra peritoneally with a sterile solution of streptozotocin prepared in 100 mM citrate buffer, pH 4.65 at a dose of 200 mg/kg and an injection volume of 16.7 mL/kg. Mice were housed in a 12 h light/dark cycle and fed a normal chow diet ad libitum. Drinking water was supplemented with 5% sucrose for the first two days following streptozotocin injection before being replaced with tap water thereafter. After 4 days, blood was taken from the saphenous vein of the mice using the method of Hem, A et al. (26). Random non-fasting blood glucose levels were determined on venous blood using an esprit glucometer (Bayer). Mice with blood glucose levels of greater than 15 mmol/L were characterised as diabetic.
Blood glucose levels of mice were determined, followed by an intra peritoneal dose of IM compound dissolved in diluent (1.6% glycerin, 0. 25% m-cresol, pH 6.75). Mice were then bled periodically and whole blood glucose levels were determine using a one-touch esprit glucometer (Bayer).

IGF-1 receptor [4] = molecular target: T3, IGF-1 receptor (Homo sapiens, UniProt P08069); assay: 125I IGF-1 binding to human placental plasma membranes (HPPM); parameters: from tissue; host or cells: human placenta, plasma membranes; settings: HPPM
insulin receptor [5] = molecular target: T1, insulin receptor; assay: 125I insulin binding, insulin receptors from a number of sources; parameters: host or cells: several: placental membranes, CHO.T11 cells, WGA purified receptors
Protocol: (§1) Tubes were mixed and incubated for 16 h at 4° C. After the incubation, the tubes were placed on ice and 300 μL of a 1:5 suspension of 0.4% bovine-γ-globulin in 20% polyethyleneglycol 6000 (BDH chemicals) was added to each tube, mixed thoroughly and left to incubate for 30 min on ice. The tubes were then centrifuged (3,000 g) for 30 min at 4° C., the supernatant was aspirated off and the pellet counted for radioactivity. […] Inhibition constants were estimated by graphical analysis of displacement plots or calculated using the curve fitting programs EBDA and/or LIGAND.
Target sequence in this assay (P06213 28-758 limits assumed): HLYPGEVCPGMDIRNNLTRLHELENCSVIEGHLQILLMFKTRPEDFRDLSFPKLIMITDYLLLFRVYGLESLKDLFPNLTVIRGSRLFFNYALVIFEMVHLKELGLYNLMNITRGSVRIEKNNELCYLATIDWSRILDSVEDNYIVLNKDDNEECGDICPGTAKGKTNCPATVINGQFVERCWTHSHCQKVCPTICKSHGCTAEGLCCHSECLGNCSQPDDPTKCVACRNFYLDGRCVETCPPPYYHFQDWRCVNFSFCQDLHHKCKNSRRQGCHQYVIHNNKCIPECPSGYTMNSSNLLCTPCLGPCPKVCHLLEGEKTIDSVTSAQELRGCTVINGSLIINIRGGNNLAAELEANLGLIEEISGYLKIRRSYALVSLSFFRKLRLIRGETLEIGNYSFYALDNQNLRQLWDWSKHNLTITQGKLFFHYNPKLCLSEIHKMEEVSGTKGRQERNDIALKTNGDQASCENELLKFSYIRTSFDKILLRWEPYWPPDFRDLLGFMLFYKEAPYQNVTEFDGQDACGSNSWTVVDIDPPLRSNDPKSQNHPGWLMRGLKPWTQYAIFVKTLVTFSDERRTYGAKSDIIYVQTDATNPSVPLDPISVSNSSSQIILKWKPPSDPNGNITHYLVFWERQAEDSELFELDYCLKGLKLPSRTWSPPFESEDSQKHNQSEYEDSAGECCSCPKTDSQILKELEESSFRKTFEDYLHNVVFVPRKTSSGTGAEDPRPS

[6] = molecular target: T4, insulin receptor β-subunit (Homo sapiens, UniProt P06213); assay: Insulin receptor autophosphorylation (32P into 90 kDa band); assay type: biochemical
T4 construct: expressed in transfected cells
Protocol: After this preincubation, 2.5 μL of 1 mM ATP, 100 mM sodium orthovanadate and 5 μCi of [γ-^32P]ATP were added and incubated at room temperature for 25 minutes. The reaction was terminated by the addition of 1.5 μL of 0.5 M EDTA and 3.5 μL of 1.5 M NaCl. The solution was then either solubilised and resolved by SDS-PAGE or immunoprecipitated using anti-insulin Rβ (29B4) mouse monoclonal IgG or anti-phosphotyrosine (PY20) mouse monoclonal IgG (Santa Cruz Biotechnology Inc., USA), solubilised and then resolved by SDS-PAGE. Immunoprecipitation was performed by incubating one microgram of antibody with the reaction mixture over night at 4° C. […] The receptor-antibody-Sepharose complex was separated from the supernatant by centrifugation at 7,500 g for 5 minutes. The pellet was washed three times in TBS containing 0.1% Triton X-100 and 10 μL of 0.1 M glycine, pH 3.3 was added. The solution was then solubilised by incubation for 5 minutes at 100° C. in 10 μL of 80 mM Tris-HCl, pH 6.8 containing 0.45 M DTT, 56 mM EDTA, 30% sucrose and 6% SDS. Following centrifugation for 5 minutes at 7,500 g, the supernatant was resolved on a 7.5% SDS polyacrylamide gel. […] In some instances, gel bands corresponding to 90 kDa were excised and the associated radioactivity was measured by suspending the gel band in 2.5 mL of Scintillation fluid (Beckman) using a Beckman β-counter.

IGF-1 receptor [7] = molecular target: T3, IGF-1 receptor; assay: Phosphorylation of immunoprecipitated IGF-1 receptors; assay type: biochemical; settings: immunoprecipitated IGF-1 receptors free of insulin receptors
insulin receptor [8] = molecular target: T1, insulin receptor; assay: 125I insulin binding to human placental plasma membranes (HPPM); parameters: Human Placental Plasma Membranes—50 mM Hepes, pH 7.8 @ 4 C containing 100 U/mL Bacitracin; from tissue; host or cells: human placenta, plasma membranes; settings: human placental plasma membranes, 16 h at 4° C.
Protocol: as §1
Target sequence in this assay (P06213 28-758 limits assumed): as above

IGF-1 receptor [9] = assay: 125I IGF-1 binding to human placental plasma membranes (HPPM); settings: same source of receptors (HPPM)
insulin receptor [10] = molecular target: T1, insulin receptor; assay: 125I insulin binding to wheat germ agglutinin purified insulin receptors (WGA.IR); parameters: host or cells: several: placental membranes, CHO.T11 cells, WGA purified receptors; settings: LIGAND 1-site fit
Protocol: as §1
Target sequence in this assay (P06213 28-758 limits assumed): as above

Chain of insulin receptor β-subunit associated tyrosine kinase activity (P06213 28-758 limits assumed): as above
T3 sequence (P08069 31-736 limits assumed): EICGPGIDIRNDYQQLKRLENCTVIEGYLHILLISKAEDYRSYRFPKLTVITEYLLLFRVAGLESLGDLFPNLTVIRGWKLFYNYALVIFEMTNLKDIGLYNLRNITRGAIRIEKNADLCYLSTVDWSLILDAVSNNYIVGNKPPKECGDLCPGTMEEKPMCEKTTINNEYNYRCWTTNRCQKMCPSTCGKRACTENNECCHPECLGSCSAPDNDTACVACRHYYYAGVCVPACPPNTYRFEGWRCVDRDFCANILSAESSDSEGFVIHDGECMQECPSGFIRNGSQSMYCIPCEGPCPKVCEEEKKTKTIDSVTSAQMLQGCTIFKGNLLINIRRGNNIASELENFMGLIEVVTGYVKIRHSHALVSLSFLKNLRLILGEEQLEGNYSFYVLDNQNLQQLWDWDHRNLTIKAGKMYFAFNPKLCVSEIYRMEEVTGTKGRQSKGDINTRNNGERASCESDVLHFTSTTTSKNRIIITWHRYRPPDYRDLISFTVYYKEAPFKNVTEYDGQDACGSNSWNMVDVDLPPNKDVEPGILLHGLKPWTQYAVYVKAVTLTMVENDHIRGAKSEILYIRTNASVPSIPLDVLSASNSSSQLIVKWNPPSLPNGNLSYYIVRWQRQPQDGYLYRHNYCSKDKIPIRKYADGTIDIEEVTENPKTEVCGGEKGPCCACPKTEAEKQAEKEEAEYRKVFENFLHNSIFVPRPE
T4 sequence (P06213 28-758): as the sequence (P06213 28-758 limits assumed) above
T4 sequence (P06213 763-1382): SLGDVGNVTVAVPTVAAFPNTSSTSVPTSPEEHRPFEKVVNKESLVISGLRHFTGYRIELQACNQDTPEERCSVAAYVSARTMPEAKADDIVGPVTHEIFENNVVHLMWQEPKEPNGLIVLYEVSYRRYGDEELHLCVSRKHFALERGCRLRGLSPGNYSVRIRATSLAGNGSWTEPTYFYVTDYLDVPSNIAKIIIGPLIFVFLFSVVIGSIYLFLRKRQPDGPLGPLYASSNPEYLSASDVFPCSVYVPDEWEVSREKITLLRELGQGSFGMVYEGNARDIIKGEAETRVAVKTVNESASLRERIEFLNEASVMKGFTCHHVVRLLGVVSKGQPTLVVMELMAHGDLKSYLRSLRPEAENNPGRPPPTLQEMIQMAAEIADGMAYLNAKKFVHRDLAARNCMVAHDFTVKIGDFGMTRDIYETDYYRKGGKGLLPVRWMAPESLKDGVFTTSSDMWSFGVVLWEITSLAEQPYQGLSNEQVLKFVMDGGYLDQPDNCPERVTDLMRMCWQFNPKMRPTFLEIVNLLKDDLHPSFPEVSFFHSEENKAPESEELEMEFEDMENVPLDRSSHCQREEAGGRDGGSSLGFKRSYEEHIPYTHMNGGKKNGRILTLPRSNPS
T2 sequence (A0A8C2N2R2 31-1371): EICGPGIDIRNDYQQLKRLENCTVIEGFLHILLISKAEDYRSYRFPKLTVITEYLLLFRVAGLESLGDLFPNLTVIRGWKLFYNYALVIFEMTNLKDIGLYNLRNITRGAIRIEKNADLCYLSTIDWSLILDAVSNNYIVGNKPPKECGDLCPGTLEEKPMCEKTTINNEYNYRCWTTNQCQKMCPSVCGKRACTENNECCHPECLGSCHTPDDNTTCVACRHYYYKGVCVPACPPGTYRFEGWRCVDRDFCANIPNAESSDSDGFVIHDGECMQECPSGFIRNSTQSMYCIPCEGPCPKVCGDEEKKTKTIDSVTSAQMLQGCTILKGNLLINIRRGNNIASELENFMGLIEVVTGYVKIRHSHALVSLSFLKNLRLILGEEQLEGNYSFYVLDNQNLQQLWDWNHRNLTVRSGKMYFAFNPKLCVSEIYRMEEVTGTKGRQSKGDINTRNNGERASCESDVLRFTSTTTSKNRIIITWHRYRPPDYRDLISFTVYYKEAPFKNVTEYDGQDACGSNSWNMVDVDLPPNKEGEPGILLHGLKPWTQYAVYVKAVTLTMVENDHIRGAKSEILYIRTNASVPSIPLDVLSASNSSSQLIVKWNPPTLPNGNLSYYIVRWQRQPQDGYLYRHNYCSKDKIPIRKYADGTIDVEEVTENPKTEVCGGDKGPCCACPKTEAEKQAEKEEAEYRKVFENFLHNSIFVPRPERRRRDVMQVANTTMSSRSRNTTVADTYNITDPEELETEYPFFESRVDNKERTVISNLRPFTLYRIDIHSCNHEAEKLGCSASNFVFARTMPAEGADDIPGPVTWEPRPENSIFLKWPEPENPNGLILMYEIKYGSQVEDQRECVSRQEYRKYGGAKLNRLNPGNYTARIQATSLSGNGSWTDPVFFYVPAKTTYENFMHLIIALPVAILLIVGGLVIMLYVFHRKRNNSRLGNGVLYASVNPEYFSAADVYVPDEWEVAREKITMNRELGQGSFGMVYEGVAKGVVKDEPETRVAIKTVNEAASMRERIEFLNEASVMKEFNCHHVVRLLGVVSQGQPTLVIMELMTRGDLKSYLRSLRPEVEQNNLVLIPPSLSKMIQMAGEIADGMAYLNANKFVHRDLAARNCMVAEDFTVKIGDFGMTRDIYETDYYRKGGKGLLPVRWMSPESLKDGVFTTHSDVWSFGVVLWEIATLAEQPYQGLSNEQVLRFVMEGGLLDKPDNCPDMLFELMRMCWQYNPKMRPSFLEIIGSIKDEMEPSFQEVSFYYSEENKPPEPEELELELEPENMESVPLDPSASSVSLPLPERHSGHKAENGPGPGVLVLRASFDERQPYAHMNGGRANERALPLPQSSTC

Molecule: insulin: peptidyl ligand; the most important regulatory hormone involved in maintaining glucose homeostasis
pEC50 (NIH 3T3 HIR3.5 cells): 10.00

classification of insulin action (insulin receptor [2]): agonists of insulin action
effect on 125I IGF-1 binding (IGF-1 receptors): does not compete for ^125I IGF-1 binding
EC50 in vivo [3]: 15 µmol/kg
concentration of maximal 125I insulin binding (insulin receptor [5]): 80 to 100 µM
pEC50 (insulin receptor [5]; read-out: apparent EC50 of increase in 125I insulin binding, low micromolar concentrations): 4.70 to 5.00
Molecule: CCc1cc(-c2ccc(F)cc2)c(O)cc1OCCCOc1ccc2c(=O)c3cc(C(=O)O)ccc3oc2c1CCC(=O)O [IM 140, 3-[4-[7-carboxy-9-oxo-3-[3-[2-ethyl-4-(4-fluorophenyl)-5-hydroxyphenoxy]propoxy]-9H-xanthene]]propanoic acid]
effect of compound alone on 32P incorporation into FYF peptide [1]: promotes the ATP-dependent phosphorylation of endogenous FYF peptide in a dose dependent manner
effect of compound alone on glucose transport (3T3L1 adipocyte cells): activates glucose transport in 3T3L1 cells
efficacy compared with insulin, glucose transport (3T3L1 adipocyte cells; compound alone, relative to maximal dose of insulin (100 nM)): 25-40%
pEC50 (3T3L1 adipocyte cells; compound alone, read-out: apparent EC50, stimulation of glucose transport): 4.52 to 4.70
pEC50 (3T3L1 adipocyte cells; read-out: apparent EC50, glucose transport with sub-maximal insulin, in presence of 2 nM insulin): 5.10
glucose transport, % of maximal efficacy (100 nM insulin) (3T3L1 adipocyte cells; with 2 nM insulin, compound at 15 μM): 80%
dose of peak activity, bi-phasic dose response in vivo [3]: 20 to 40 µmol/kg
effect on blood glucose levels ([3]; 100 μmol/kg, preliminary studies): does not decrease blood glucose levels
efficacy in lowering blood glucose relative to human insulin ([3]; dose of 35 μmol/kg, intra peritoneal): about 25%
effect on 125I IGF-1 binding (IGF-1 receptor [4]): does not compete for ^125I IGF-1 binding to HPPM; also recorded: promotes ^125I IGF-1 binding to HPPM

Molecule: Cc1ccc(C(=O)Nc2ccc(S(=O)(=O)O)c3cc(S(=O)(=O)O)cc(S(=O)(=O)O)c23)cc1NC(=O)c1cccc(NC(=O)Nc2cccc(C(=O)Nc3cc(C(=O)Nc4ccc(S(=O)(=O)O)c5cc(S(=O)(=O)O)cc(S(=O)(=O)O)c45)ccc3C)c2)c1 [IM 175, 8,8′-[Carbonylbis[imino-3,1-phenylenecarbonylimino(4-methyl-3,1-phenylene)carbonylimino]]bis-1,3,5-naphthalenetrisulfonic acid]
pEC50 (3T3L1 adipocyte cells; Mus musculus, 3T3-L1, compound alone, read-out: apparent EC50, stimulation of glucose transport): ~3.60
effect of compound alone on glucose transport (3T3L1 adipocyte cells): levels approaching maximal stimulation by insulin
classification of insulin action (insulin receptor [2]): agonists of insulin action
autophosphorylation of insulin receptor β-subunits, efficacy relative to insulin ([6]; relative to 100 nM dose of insulin, immunoprecipitated insulin receptors): about 65%
effect on IGF-1 receptor phosphorylation (IGF-1 receptor [7]): can also stimulate the IGF-1 receptor
effect on IGF-1 receptor phosphorylation (IGF-1 receptor [7]; listed as IM175): lower potency on IGF-1 receptors than it does on insulin receptors
pKi (IGF-1 receptor [4]; read-out: Ki, competition for 125I IGF-1 binding): 5.05
pKi (insulin receptor [8]): 4.32 to 4.34

classification of insulin action (insulin receptor [2]): antagonists of insulin action
pIC50 (insulin receptor [2]; PTK and glucose transport (FIGS. 8 and 9), read-out: apparent IC50 in several biological assays): 3.70 to 4.52
apparent Ki for 125I IGF-1 binding relative to Ki for 125I insulin binding (IGF-1 receptor [9]): approximately two fold higher
pKi (IGF-1 receptor [4]; read-out: apparent Ki, displacement of 125I IGF-1 binding): 2.89 to 3.10
pKi (insulin receptor [10]): 3.72
pKi (insulin receptor [8]): 3.26 to 3.49
Molecule: CCCc1c(OCCCOc2ccc(C(C)=O)c(OC)c2CCC)ccc2c1OC(C(=O)O)CC2 (stereo not shown) [IM 129, 7-[3-(4-acetyl-3-methoxy-2-propylphenoxy)propoxy]-3,4-dihydro-8-propyl-2H-1-benzopyran-2-carboxylic acid]

Molecule: 3,4-dihydro-7-[[6-(4-methoxyphenyl)hexenyl]oxy]-8-propyl-2H-1-benzopyran-2-carboxylic acid [IM 172]
effect of compound alone on 32P incorporation into FYF peptide [1]: does not increase ^32P incorporation into FYF peptide
pKi ([1]; inhibition of insulin stimulation, read-out: estimated inhibition constant, PTK assay): 4.10
pKi (3T3L1 adipocyte cells; 3T3L1 cells, 2 nM insulin, read-out: estimated inhibition constant (Ki), glucose transport assay): 4.10
effect of compound alone on glucose transport (3T3L1 adipocyte cells): does not activate glucose transport in 3T3L1 cells
classification of insulin action (insulin receptor [2]): antagonists of insulin action
effect on 32P incorporation into insulin receptor β-subunit ([6]; basal): does not increase ^32P incorporation into FYF peptide or the insulin receptor β-subunit
pKi (insulin receptor [8]; read-out: apparent Ki (inhibition constant), competition for 125I insulin binding): 3.66
